Literature values in patent EP2361606A2, “Oral and tooth care and cleaning agents with ethyl lauroyl arginate” (Henkel AG & Co. KGaA, priority 2010, dated 2011).
Where two headings read alike, the source gives them in different places. Values belong to the substance of their own block, whether it stands above or below them.

[1] = in water, 20°C, bound that defines the group of not soluble / soluble zinc salts
[2] = in water, temperature not given, bound that defines the group of soluble inorganic zinc salts

- Löslichkeit [1]: > 100 mg/L
Substance: Zinkacetat

- Löslichkeit (20°C): 430 g/I (20°C)
Substance: Zinkacetat-Dihydrat

- Löslichkeit [1]: > 100 mg/L
Substance: Zinkbenzoat

- Löslichkeit (25°C): 820 g/I (25°C)
- Löslichkeit [2]: > 100 mg/L
Substance: Zinkbromid

- Löslichkeit (25°C): 4320 g/I (25°C)
- Löslichkeit [2]: > 100 mg/L
Substance: Zinkchlorid

- Löslichkeit [1]: < 100 mg/L
Substance: Zinkcitrat

- Löslichkeit [1]: > 100 mg/L
Substance: Zinkformiat

- Löslichkeit (20°C): 100 g/I (20°C)
- Löslichkeit [1]: > 100 mg/L
Substance: Zinkgluconat

- Löslichkeit (result in words, 20°C): Fast unlöslich (20°C)
Substance: Zinkhydroxycarbonat

- Löslichkeit (20°C): 4500 g/I (20°C)
- Löslichkeit [2]: > 100 mg/L
Substance: Zinkiodid

- Löslichkeit [1]: > 100 mg/L
Substance: Zinklactat

- Löslichkeit [2]: > 100 mg/L
Substance: Zinknitrat

- Löslichkeit (20°C): 1843 g/I (20°C)
Substance: Zinknitrat Hexahydrat

- Löslichkeit (result in words, 20°C): Leicht löslich (20°C)
Substance: Zinknitrat-Tetrahydrat

- Löslichkeit [1]: < 100 mg/L
Substance: Zinkoleat

- Löslichkeit [1]: < 100 mg/L
Substance: Zinkoxalat

- Löslichkeit [1]: < 100 mg/L
- Löslichkeit (result in words, temperature not given): Unlöslich
Substance: Zinkoxid

- Löslichkeit [1]: > 100 mg/L
Substance: Zinksalz der p-Toluolsulfonsäure

- Löslichkeit (20°C): 0,9 mg/I (20°C)
- Löslichkeit [1]: < 100 mg/L
Substance: Zinkstearat

- Löslichkeit [2]: > 100 mg/L
Substance: Zinksulfat

- Löslichkeit (20°C): 960 g/I (20°C)
Substance: Zinksulfat-Heptahydat

- Löslichkeit (20°C): ∼350 g/I (20°C)
Substance: Zinksulfat-Monohydrat

- Löslichkeit [1]: < 100 mg/L
Substance: Zinktartrat

- Löslichkeit [1]: > 100 mg/L
Substance: Zinkvalerat

- Löslichkeit [1]: < 100 mg/L
Substance: Zinnlaureat
